Columns and labels:
U937 cells = assay: Cellular assay in U937 cells: activity of RIPK1 inhibitors on TNFα/zVAD.fmk-induced cell death (necroptosis), CellTiter 96 AQueous (MTS) readout; assay type: cell-based; conditions: Homo sapiens, U-937
In short: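 Necroptosis was measured by viable-cell MTS reduction (4 h, absorbance 490 nm) after overnight (18–24 h) 37° C culture. Cell suspensions of U937 cells carried TNFα (100 ng/ml) plus zVAD.fmk (50 μM) before compound was added. A 10-point curve (10 μM–0.26 nM or 1 μM–0.07 nM) was run in duplicate, normalised to the control lacking TNFα/zVAD.fmk.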

[1] = biological target: T1, hRIPK1 (aa 1-375) fusion protein (Homo sapiens, UniProt Q13546); assay: ADP-Glo kinase assay: catalytic activity of RIPK1 (autophosphorylation, conversion of ATP to ADP); assay type: biochemical
T1 construct: hRIPK1 (aa 1-375) fusion protein
T1 sequence (Q13546 1-375): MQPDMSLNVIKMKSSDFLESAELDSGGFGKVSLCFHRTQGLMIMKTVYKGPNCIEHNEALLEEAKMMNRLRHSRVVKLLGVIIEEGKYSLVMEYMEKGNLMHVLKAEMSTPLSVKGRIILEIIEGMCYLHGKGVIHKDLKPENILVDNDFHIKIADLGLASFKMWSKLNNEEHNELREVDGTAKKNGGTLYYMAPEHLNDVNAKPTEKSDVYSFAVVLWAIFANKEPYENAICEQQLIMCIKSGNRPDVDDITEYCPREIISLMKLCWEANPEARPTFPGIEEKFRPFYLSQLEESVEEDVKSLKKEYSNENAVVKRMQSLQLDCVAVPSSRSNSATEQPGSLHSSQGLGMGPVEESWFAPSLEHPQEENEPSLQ
In short: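 hRIPK1 (aa 1-375) fusion protein (3.6 μg/ml final) was preincubated 30 min at rt with compound (33300-1.69 nM, 1% DMSO), then 50 μM ATP was added for 240 min at rt. ADP from autophosphorylation was measured by ADP-Glo luminescence and curves fitted by nonlinear regression.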

| IC50 [1] | SMILES | IC50 (U937 cells) |
| --- | --- | --- |
| 5 nM | CNC(=O)c1cc(F)cc(C[C@H]2CC[C@H](C(=O)N3OCC[C@H]3c3cc(F)cc(C#N)c3)CC2)c1 [compound 164, trans-3-[[4-[(3S)-3-(3-cyano-5-fluoro-phenyl)isoxazolidine-2-carbonyl]cyclohexyl]methyl]-5-fluoro-N-methyl-benzamide] | 7 nM |
| 16 nM | CNC(=O)c1ccc(F)c(C[C@H]2CC[C@H](C(=O)N3OCC[C@H]3c3cncc(F)c3)CC2)c1 [compound 172, trans-4-fluoro-3-[[4-[(3S)-3-(5-fluoro-3-pyridyl)isoxazolidine-2-carbonyl]cyclohexyl]methyl]-N-methyl-benzamide] | 9 nM |
| 18 nM | CNC(=O)c1ccc(F)c(C[C@H]2CC[C@H](C(=O)N3OCC[C@H]3c3ccc(F)cc3)CC2)c1 [compound 173, trans-4-fluoro-3-[[4-[(3S)-3-(4-fluorophenyl)isoxazolidine-2-carbonyl]cyclohexyl]methyl]-N-methyl-benzamide] | 17 nM |
| 19 nM | CNC(=O)c1ccc(F)c(C[C@H]2CC[C@H](C(=O)N3OCC[C@H]3c3cc(F)cc(F)c3)CC2)c1 [compound 174, trans-3-[[4-[(3S)-3-(3,5-difluorophenyl)isoxazolidine-2-carbonyl]cyclohexyl]methyl]-4-fluoro-N-methyl-benzamide] | 4 nM |
| 14 nM | CNC(=O)c1ccc(F)c(C[C@H]2CC[C@H](C(=O)N3OCC[C@H]3c3cnccn3)CC2)c1 [compound 175, trans-4-fluoro-N-methyl-3-[[4-[(3S)-3-pyrazin-2-ylisoxazolidine-2-carbonyl]cyclohexyl]methyl]benzamide] | 7 nM |
| 13 nM | CNC(=O)c1ccc(F)c(C[C@H]2CC[C@H](C(=O)N3OCC[C@H]3c3cncc(C#N)c3)CC2)c1 [compound 176, trans-3-[[4-[(3S)-3-(5-cyano-3-pyridyl)isoxazolidine-2-carbonyl]cyclohexyl]methyl]-4-fluoro-N-methyl-benzamide] | 15 nM |
| 11 nM | CNC(=O)c1ccc(F)c(C[C@H]2CC[C@H](C(=O)N3OCC[C@H]3c3cc(F)cc(C#N)c3)CC2)c1 [compound 177, trans-3-[[4-[(3S)-3-(3-cyano-5-fluoro-phenyl)isoxazolidine-2-carbonyl]cyclohexyl]methyl]-4-fluoro-N-methyl-benzamide] | 5 nM |

Further lines, the compound ahead of its results:

| SMILES | IC50 [1] | IC50 (U937 cells) |
| --- | --- | --- |
| CNC(=O)c1cc(F)cc(C[C@H]2CC[C@H](C(=O)N3OCC[C@H]3c3ccc(F)cc3)CC2)c1 [compound 165, trans-3-fluoro-5-[[4-[(3S)-3-(4-fluorophenyl)isoxazolidine-2-carbonyl]cyclohexyl]methyl]-N-methyl-benzamide] | 5 nM | 7 nM |
| COc1cncc([C@@H]2CCON2C(=O)[C@H]2CC[C@H](Cc3ccc(C)c(C(N)=O)c3)CC2)n1 [compound 166, trans-5-[[4-[(3S)-3-(6-methoxypyrazin-2-yl)isoxazolidine-2-carbonyl]cyclohexyl]methyl]-2-methyl-benzamide] | 8 nM | 50 nM |
| Cn1cncc1C[C@H]1CC[C@H](C(=O)N2OCC[C@H]2c2cc(F)cc(C#N)c2)CC1 [compound 167, trans-3-fluoro-5-[(3S)-2-[4-[(3-methylimidazol-4-yl)methyl]cyclohexanecarbonyl]isoxazolidin-3-yl]benzonitrile] | 104 nM | 100 nM |
| Cn1cncc1C[C@H]1CC[C@H](C(=O)N2OCC[C@H]2c2cncc(C#N)c2)CC1 [compound 168, trans-5-[(3S)-2-[4-[(3-methylimidazol-4-yl)methyl]cyclohexanecarbonyl]isoxazolidin-3-yl]pyridine-3-carbonitrile] | 829 nM | 653 nM |
| N#Cc1cc(F)cc([C@@H]2CCON2C(=O)[C@H]2CC[C@H](Cc3ccc(C4(O)COC4)cc3)CC2)c1 [compound 169, trans-3-fluoro-5-[(3S)-2-[4-[[4-(3-hydroxyoxetan-3-yl)phenyl]methyl]cyclohexanecarbonyl]isoxazolidin-3-yl]benzonitrile] | 19 nM | 44 nM |
| O=C([C@H]1CC[C@H](Cc2ccc(C3(O)COC3)cc2)CC1)N1OCC[C@H]1c1ccc(F)cc1 [compound 170, trans-[(3S)-3-(4-fluorophenyl)isoxazolidin-2-yl]-[4-[[4-(3-hydroxyoxetan-3-yl)phenyl]methyl]cyclohexyl]methanone] | 21 nM | 15 nM |
| O=C([C@H]1CC[C@H](Cc2ccc(C3(O)COC3)cc2)CC1)N1OCC[C@H]1c1cc(F)cc(F)c1 [compound 171, trans-[(3S)-3-(3,5-difluorophenyl)isoxazolidin-2-yl]-[4-[[4-(3-hydroxyoxetan-3-yl)phenyl]methyl]cyclohexyl]methanone] | 19 nM | 6 nM |
| Cc1ncc(F)cc1C[C@H]1CC[C@H](C(=O)N2OCC[C@H]2c2cncc(F)c2)CC1 [compound 178, trans-[4-[(5-fluoro-2-methyl-3-pyridyl)methyl]cyclohexyl]-[(3S)-3-(5-fluoro-3-pyridyl)isoxazolidin-2-yl]methanone] | 38 nM | 6 nM |
| Cc1ncc(F)cc1C[C@H]1CC[C@H](C(=O)N2OCC[C@H]2c2ccc(F)cc2)CC1 [compound 179, trans-[4-[(5-fluoro-2-methyl-3-pyridyl)methyl]cyclohexyl]-[(3S)-3-(4-fluorophenyl)isoxazolidin-2-yl]methanone] | 32 nM | 5 nM |
| Cc1ncc(F)cc1C[C@H]1CC[C@H](C(=O)N2OCC[C@H]2c2cnccn2)CC1 [compound 180, trans-[4-[(5-fluoro-2-methyl-3-pyridyl)methyl]cyclohexyl]-[(3S)-3-pyrazin-2-ylisoxazolidin-2-yl]methanone] | 32 nM | 11 nM |
| Cc1ncc(F)cc1C[C@H]1CC[C@H](C(=O)N2OCC[C@H]2c2cc(F)cc(C#N)c2)CC1 [compound 181, trans-3-fluoro-5-[(3S)-2-[4-[(5-fluoro-2-methyl-3-pyridyl)methyl]cyclohexanecarbonyl]isoxazolidin-3-yl]benzonitrile] | 26 nM | 2 nM |
| Cc1ncc(F)cc1C[C@H]1CC[C@H](C(=O)N2OCC[C@H]2c2cc(F)cc(F)c2)CC1 [compound 182, trans-[(3S)-3-(3,5-difluorophenyl)isoxazolidin-2-yl]-[4-[(5-fluoro-2-methyl-3-pyridyl)methyl]cyclohexyl]methanone] | 22 nM | 1 nM |
| N#Cc1cncc([C@@H]2CCON2C(=O)[C@H]2CC[C@H](Cc3ccc(C4(O)COC4)cc3)CC2)c1 [compound 183, trans-5-[(3S)-2-[4-[[4-(3-hydroxyoxetan-3-yl)phenyl]methyl]cyclohexanecarbonyl]isoxazolidin-3-yl]pyridine-3-carbonitrile] | 45 nM | 23 nM |
| CC1(Oc2cnc3ccn(C[C@H]4CC[C@H](C(=O)N5OCC[C@H]5c5cc(F)cc(C#N)c5)CC4)c3c2)CC1 [compound 184, trans-3-fluoro-5-[(3S)-2-[4-[[6-(1-methylcyclopropoxy)pyrrolo[3,2-b]pyridin-1-yl]methyl]cyclohexanecarbonyl]isoxazolidin-3-yl]benzonitrile] | 26 nM | 19 nM |

— US20260158009A1 (GENZYME CORPORATION, priority 2023, published 2026)
